Experimental data as given in patent publication US5691340A, “Benzopyran derivatives” (Adir et Compagnie, priority 1994, dated 1997).

Key:
[1] = test system: hyperactivity induced by N-allylnormetazocine; experiment: Antagonism of the hyperactivity induced by N-allylnormetazocine; assay type: in vivo; settings: 32 mg.kg^-1, rats; N-allylnormetazocine 50 mg/kg subcutaneous
Method: This test was developed by Snyder S. H. et al. (J. Neuropsychiatry, 1989, 1,7-15).
Measurement of the hyperactivity induced by this product is therefore used as an alternative model for detecting the antipsychotic activity of the compounds which have an effect on σ receptors.
A group of 12 rats is treated with the compound to be tested before subcutaneous administration of 50 mg/kg of N-allylnormetazocine. 30 minutes later, the animals are placed in an activity cage for 30 minutes.
Haloperidol is used as reference compound.

σ1 receptor = molecular target: T1, σ1 receptor (Cavia porcellus, UniProt Q60492); experiment: In vitro binding to σ1 receptors ([3H]-Pentazocine); set-up: species or system guinea pig
T1 construct: Guinea pig brain; from tissue; host or cells: guinea pig brain
T1 sequence (Q60492 whole entry): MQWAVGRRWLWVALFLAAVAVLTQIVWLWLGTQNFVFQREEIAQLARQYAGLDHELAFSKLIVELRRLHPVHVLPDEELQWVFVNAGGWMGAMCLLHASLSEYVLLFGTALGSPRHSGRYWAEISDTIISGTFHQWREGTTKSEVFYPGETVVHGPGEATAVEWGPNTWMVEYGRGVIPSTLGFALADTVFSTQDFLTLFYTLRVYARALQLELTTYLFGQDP
Method: (§1) The products are tested on each receptor at 5 different concentrations (10^-5 M, 10^-6 M, 10^-7 M, 10^-8 M and 10^-9 M) in triplicate. When the binding coefficient IC50 (concentration of product which displaces 50% of the radioligand) is less than a concentration of 10^-6 M, the Ki is measured by using 12 concentrations of the product.
(§2) The receptors for which the affinity of the compounds of the invention was determined, the tissue chosen, the concentration used for determining the non-specific fraction and the radioligand used to label the receptor are shown in Table A.

σ2 receptor = molecular target: T2, σ2 receptor (Cavia porcellus, UniProt H0V073); experiment: In vitro binding to σ2 receptors ([3H]-DTG); set-up: species or system guinea pig
T2 construct: Guinea pig brain; from tissue; host or cells: guinea pig brain
T2 sequence (H0V073 1-176): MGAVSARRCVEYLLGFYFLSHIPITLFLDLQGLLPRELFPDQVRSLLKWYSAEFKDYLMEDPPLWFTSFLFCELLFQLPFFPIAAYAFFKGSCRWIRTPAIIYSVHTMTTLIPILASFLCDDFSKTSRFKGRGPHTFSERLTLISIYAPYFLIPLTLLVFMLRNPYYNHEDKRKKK
Method: as §1, §2

σ receptors = settings: cited from earlier work
man = settings: in vivo; cited from earlier work
[2] = test system: hypermotility induced by amphetamine; experiment: Antagonism of hypermotility induced by amphetamine; assay type: in vivo, NMRI-CERJ mice; settings: 64 mg/kg, IP, mice; d-amphetamine 4 mg.kg^-1 IP
Method: This test was developed by Costall B., et al. (Brain Research, 1977, 123, 89-111).
Groups of 10 NMRI-CERJ mice are injected intraperitoneally (IP) with 4 mg.kg^-1 of d-amphetamine immediately after the compound to be tested (also injected by the IP route) and the mice are placed in an activity cage for 30 minutes.
The number of interruptions of photoelectric cells is recorded, as well as the stereotypical behavior.
The activity of the tested compounds is expressed as percentage of antagonism of the hyperactivity induced by amphetamine.

σ receptor = experiment: In vitro binding to σ receptors ([3H]-DTG or [3H]-3-PPP); set-up: species or system calf; settings: [3H]-DTG
Method: as §1, §2
10^-6 M Calf hippocampus

## CC(CN1CCN(Cc2ccccc2)CC1)Oc1ccccc1 (stereo not shown) [Example 9, 1-(2-PHENOXYPROPYL)-4-BENZYLPIPERAZINE]
[1]
  antagonism of the hypermotility induced by N-allylnormetazocine: 42%
σ1 receptor
  IC50: 1.3 nM
σ2 receptor
  IC50: 40 nM

## C=CCN1CCC2(C)c3cc(O)ccc3CC1C2C (single isomer, unassigned) [N-Allylnormetazocine]
σ receptors
  agonism at σ receptors: prototype agonist for σ receptors
man
  psychotic behavior in man: induces psychotic behavior in man

## c1ccc(CN2CCN(CC3Cc4ccccc4O3)CC2)cc1 (stereo not shown) [Example 4, 1-[(2,3-DIHYDROBENZOFUR-2-YL) METHYL]-4-BENZYLPIPERAZINE]
[2]
  percentage of antagonism of the hyperactivity induced by amphetamine: 61%
σ receptor
  IC50: 7 nM

## COc1ccc2c(CN3CCN(Cc4ccccc4)CC3)cc(=O)oc2c1 [Example 3, 1-[(7-METHOXY-2-OXOCHROM-3-EN-4-YL) METHYL]-4-BENZYLPIPERAZINE]
σ receptor
  IC50: 1.3 nM

## Fc1ccc2c(c1)CC(CN1CCN(Cc3ccccc3)CC1)O2 (stereo not shown) [Example 1, 1-[(5-FLUORO-2,3-DIHYDROBENZOFUR-2-YL) METHYL]-4-BENZYLPIPERAZINE]
[2]
  percentage of antagonism of the hyperactivity induced by amphetamine: 43%
σ receptor
  IC50: 9.1 nM
